The source of these data is US20230201149A1, “METHODS OF ANTIPATHOGENIC TREATMENT” (priority 2020, published 2023).

For series [1] the following is noted: in vivo, cited from earlier work.
Series [2] deals with COVID-19 patients. Particulars: cited from earlier work; for inflammatory markers (CRP and ferritin): during IV N-acetylcysteine administration.
Series [3] concerns COVID-19 coronavirus in human lung cells. Particulars: read-out: 50% kill rate IC50; cited from earlier work.
Series [4] has the same test system. The experiment in a line: Antiviral potency in human lung cells. It counts as cell-based. On the procedure:
Earlier research of Nafamostat indicated it would not have sufficient concentration in the plasma to cause death of the virus. This was based on trialing drugs in monkey kidney cells. It was determined it would be more realistic to trial the drugs in human lung cells. The results were dramatic in that vastly different effects resulted.

For the next series, the system named is COVID-infected cells. Particulars: cited from earlier work.
For series [5] the following is noted: elderly subjects, six months of 45 mg zinc/day as a gluconate; cited from earlier work.
Series [6] has as its system COVID-19 patients. Particulars: 50 treated patients, cited from earlier work.
Series [7] relates to SARS-Cov-2. To be noted: replication of SARS-Cov-2, cited from earlier work.
Series [8] relates to SARS-Cov-2. Description: Inhibition of replication of SARS-Cov-2. It counts as cell-based.
The conditions of series [9]: Alzheimer patients, 200 microg/day, cited from earlier work.
In another series the test system is ARDS patients. Particulars: intravenous, P<0.001; cited from earlier work.
The test system of a further series is COVID-19. To be noted: cited from earlier work.
The test system of another series is severe COVID patients. To be noted: cited from earlier work.

Where two headings read alike, the source gives them in different places.

Consider `CC(=O)N[C@@H](CS)C(=O)O` [N-acetylcysteine], for which the bioavailability in series [1] (po) is 6-10%. Also, in series [1], the “half-life, reduced N-acetylcysteine” value was “about 2 h” and the “half-life, total N-acetylcysteine” value is on record as “about 6 h”. Also, the “bilirubin (total and direct)” value with COVID-19 patients [2] (G6PD-deficient patient, IV NAC 600 mg every 12 h for six days) was “sustained reduction”. In addition, the ALT with COVID-19 patients [2] (G6PD-deficient patient, after IV NAC 30,000 mg over 24 h for two days, peak before 263) is given as 100 U/L. Also, in the series on COVID-19 patients [2] (G6PD-deficient patient, after IV NAC 30,000 mg over 24 h for two days, peak before 338), the AST is 62 U/L. The NLR entry with COVID-19 patients [2] (G6PD-deficient patient, sustained after the first dose) is reported as “decrease”. Also, the “inflammatory markers (CRP and ferritin)” value in the series with COVID-19 patients [2] is recorded as “significant overall reduction”. For the same compound, the “inflammatory markers (CRP and ferritin)” value with COVID-19 patients [2] (listed as NAC) is listed as “significantly reduced”. Also, the patients eventually discharged entry in the series with COVID-19 patients [2] (of ten patients) is “Eight”. Further, the lung functions entry with COVID-19 patients [2] (ten respirator-dependent COVID-19 patients) was “improved”.
Take `N=C(N)c1ccc2cc(OC(=O)c3ccc(N=C(N)N)cc3)ccc2c1` [Nafamostat]: in [3], the IC50 (usually the concentration that inhibits the measured activity by half) is 2.2 nM. Also, in series [4], the “decrease of IC50, human lung cells vs monkey kidney cells” value is 6000 fold. Also, the “potency relative to Remdesivir” value in [4] (human lung cells) is 600 fold. In addition, the “COVID-induced cytopathogenic effect (CPE)” value in the series with COVID-infected cells was “inhibits”. Besides, the “effect on the virus replication cycle” value in the series on COVID-infected cells (high levels of double-strand RNA in treated infected cells) is on record as “limited effects”.
For `[Zn]` [Zinc], the “concentration of plasma hsCRP, IL-6, MCP-1, VCAM-1, secretory phospholipase A2, MDA+HAE” value in series [5] is reported as “decreases”.
For `C=C1CC[C@H](O)C/C1=C/C=C1\CCC[C@]2(C)[C@@H]([C@H](C)CCCC(C)(C)O)CC[C@@H]12` [calcifediol], in the series with COVID-19 patients [6] (oral, untreated 50%), the “patients requiring admission to the ICU” value is on record as 2%. Moreover, the deaths result with COVID-19 patients [6] was “none died”.
For the compound `Cc1c(O)cccc1C(=O)N[C@@H](CSc1ccccc1)[C@H](O)CN1C[C@H]2CCCC[C@H]2C[C@H]1C(=O)NC(C)(C)C` [nelfinavir, Nelfinavir], the EC50 with SARS-Cov-2 [7] (read-out: effective concentration for 50% inhibition (EC50)) was 1130 nM. Besides, the EC90 in the series with SARS-Cov-2 [7] (read-out: effective concentration for 90% inhibition (EC90)) was 1760 nM. In addition, the “trough and peak serum concentration relative to EC50” value with SARS-Cov-2 [8] is given as “three to six times higher”.
As for `[Se]` [selenium], the “serum high sensitivity C-reactive protein” value in [9] (P<0.001) is on record as “reduced”. Besides, in series [9] (P=0.001), the total glutathione entry was “significantly increased”. Also, in the series with ARDS patients, the “drop in IL-1beta, R value” is listed as −0.624 and the “drop in IL-6, R value” is 0.642.
Consider Aprotinin, for which the “increase of effectiveness by omeprazole” value in the series with COVID-19 was 2.7 fold.
As to Heparin, the “benefit in less severe cases” value with severe COVID patients (less severe cases) is listed as “no benefit”. Further, in the series with severe COVID patients (most severe cases, reduced from 64%), the death rate is given as 40%.
